# Experiments:
# [1] = test system: NCI-H460 (non-small cell lung cancer) cells; assay: SRB cell growth inhibition assay, NCI-H460; type: cell-based; details: Homo sapiens, 72 h, mean ± standard deviation
# Experimental: (§1) The antitumor potential of the Sonogashira coupling products 2, tricyclic lactones 3 and 5, and tetracyclic lactones 7 was evaluated using the sulforhodamine B (SRB) assay against five human tumor cell lines: colorectal adenocarcinoma (CaCo-2), breast adenocarcinoma (MCF-7), gastric adenocarcinoma (AGS), cervical carcinoma (HeLa), and non-small cell lung cancer (NCI-H460). A primary pig liver cell culture (PLP2) was used to assess the toxicity of compounds.
# (§2) The human tumor cell lines used were CaCo-2 (colorectal adenocarcinoma), MCF-7 (breast adenocarcinoma), AGS (gastric adenocarcinoma), HeLa (cervical carcinoma), NCI-H460 (lung carcinoma). Non-tumor cell lines were also tested: PLP2 (primary pig liver culture). All the cell lines were maintained in RPMI-1640 medium supplemented with 10% fetal bovine serum, glutamine (2 mM), penicillin (100 U/mL), and streptomycin ([…]), with the exception of PLP2, which was maintained in DMEM medium supplemented with fetal bovine serum (10%), glutamine and antibiotics. The culture flasks were incubated at 37 °C and with 5% CO2, under a humid atmosphere. The cells were used only when they had 70 to 80% confluence. A known mass of each compound was dissolved in DMSO/H2O (1:1, 1 mL), in order to obtain the stock solutions with a concentration of 1 mM. […] Each compound concentration (10 μL) was incubated with the cell suspension (190 μL) of the cell lines tested in 96-well microplates for 72 h. The microplates were incubated at 37 °C and with 5% CO2 in a humid atmosphere after checking the adherence of the cells. All cell lines were tested at a concentration of 10,000 cells/well. After the incubation period, the cells were treated: TCA (10% w/v; 100 μL) was previously cooled, and plates were incubated for 1 h at 4 °C, washed with water, and, after drying, a SRB solution (0.057%, m/v; 100 μL) was added and left to stand at room temperature for 30 min. To remove non-adhered SRB, plates were washed three times with a solution of acetic acid (1% v/v) and placed to dry. Finally, an adhered SRB was solubilized with Tris (10 mM, 200 μL) and the absorbance at a wavelength of 540 nm was read in the Biotek ELX800 microplate reader. The results obtained by the SRB assay were expressed regarding the concentration compounds that can inhibit cell growth by 50%—GI50. Doxorubicin was used as a positive control.
# [2] = SRB assay, toxicity in non-tumor PLP2 cells; type: cell-based, pig; details: PLP2 primary pig liver cells (non-tumor); non-tumor primary pig liver cells, SRB assay, 72 h, mean ± standard deviation
# Experimental: as §1, §2
# [3] = test system: AGS (gastric adenocarcinoma) cells; assay: SRB cell growth inhibition assay, AGS; type: cell-based; details: Homo sapiens, 72 h, mean ± standard deviation
# Experimental: as §1, §2
# [4] = test system: MCF-7 (breast adenocarcinoma) cells; assay: SRB cell growth inhibition assay, MCF-7; type: cell-based, human; details: Homo sapiens, MCF7, 72 h, mean ± standard deviation
# Experimental: as §1, §2
# [5] = test system: L. infantum MHOM/MA/67/ITMAP-263 promastigotes; assay: Resazurin-based assay against L. infantum promastigotes; type: cell-based, Leishmania infantum; details: 72 h; for L. infantum % of Activity ± ST.DEV (Single Dose 20 μM): single dose 20 μM, no activity = less than 20%
# Experimental: (§3) The antiparasitic activity of compounds 2c–g, 3a, 5a and 7 was evaluated at a single concentration of 20 μM, against Trypanosoma brucei (T. brucei) and Leishmania infantum (L. infantum) promastigotes. The results are shown in Table 9 together with the cytotoxicity data (CC50) in THP-1–derived macrophages cells.
# L. infantum MHOM/MA/67/ITMAP-263 promastigotes forms were grown at 27 °C, in complete RPMI-1640 medium supplemented with 10% heat-inactivated Fetal Bovine Serum (FBS), 2 mM L-glutamine, 100 UI/mL penicillin/streptomycin, 20 mM HEPES. Parasites maintenance was performed in T25 non-ventilated flasks by subpassage at a concentration of 1 × 10^6/mL every 5 days on T25 non-ventilated flasks.
# The compounds’ efficacy against L. infantum promastigotes was evaluated using a resazurin-based assay. Parasites were added to 100 µL of serial dilutions of compounds in supplemented complete medium at a cell density of 5 × 10^5/mL. As a quality control, a dose–response curve to the antileishmanial drug miltefosine was included in all the assays. The final volume of the assay was 200 µL/well. Each condition was carried out in duplicate. Following 72 h of incubation at the specific conditions for L. infantum, 20 µL of a 0.5 mM resazurin solution was added, and the plates were incubated for a further 4 h under the same conditions. The methodology to obtain the results was the same described in Section 3.2.2. for T. brucei.
# [6] = MTT cytotoxicity in THP-1-derived macrophages; type: cell-based, human; details: human, THP-1-derived macrophages (PMA-differentiated); MTT, 72 h, tested 100 to 12.5 μM; read-out: CC50 Interval in THP-1-Derived Macrophages
# Experimental: Human leukemia cell line, THP-1 (ATCC® TIB-202™, Manassas, VA, USA) was cultured in RPMI-1640 medium supplemented with 10% heat-inactivated Fetal Bovine Serum (FBS), 2 mM L-glutamine, 100 UI/mL penicillin/streptomycin, 20 mM HEPES. The cell line was maintained in a humidified incubator at 37 °C and 5% CO2 by subculture every three days in 20 mL of media at a concentration of 1 × 10^5/mL in a T75 flask. All cell culture reagents were purchased from Lonza-Bioscience (Morrisville, NC, USA).
# The cytotoxicity effect of compounds on THP-1-derived macrophages was assessed by the colorimetric MTT assay (3-(4,5-dimethylthiazol-2-yl)-2,5-diphenyl tetrazolium bromide). Briefly, THP-1 cells were suspended in RPMI complete medium at a density of 1 × 10^6 cells/mL and 100 μL/well were seeded in a 96-well plate and were differentiated into macrophages by addition of 40 ng/mL of phorbol-myristate 13-acetate (PMA, Sigma, Saint Louis, MI, USA) for 24 h followed by replacement with fresh medium for more 24 h. Subsequently, cells were incubated with 100 μL of compounds ranging from 100 to 12.5 μM after dilution in the RPMI complete medium. Each condition was carried out in quadruplicate. After 72 h of incubation at 37 °C 5% CO2, the medium was removed and 200 μL of 0.5 mg/mL MTT solution diluted in RPMI was added. Plates were incubated for an additional 4 h. Then 160 μL of media was removed and the same volume of 2-propanol was added. Absorbance was read at 570 nm using a Synergy 2 Multi-Mode Reader (Biotek, Winooski, VT, USA). Cytotoxicity was evaluated by the determination of the CC50 value (drug concentration that reduced the percentage of viable cells in 50%) and calculated by non-linear regression analysis using GraphPad Prism version 8.1.1 for Windows (GraphPad Software, San Diego, CA, USA). The results represent the average of at least three independent experiments. For each compound, the Selectivity Index (SI) was calculated as the ratio between cytotoxicity in THP-1 (CC50, 72 h) and activity against parasites (IC50, 72 h).
# [7] = test system: HeLa (cervical carcinoma) cells; assay: SRB cell growth inhibition assay, HeLa; type: cell-based; details: Homo sapiens, 72 h, mean ± standard deviation
# Experimental: as §1, §2
# [8] = test system: CaCo-2 (colorectal adenocarcinoma) cells; assay: SRB cell growth inhibition assay, CaCo-2; type: cell-based, human; details: Homo sapiens, Caco-2, 72 h, mean ± standard deviation
# Experimental: as §1, §2
# [9] = test system: T. brucei Lister 427 bloodstream forms; assay: Resazurin-based anti-T. brucei assay; type: cell-based, Trypanosoma brucei; details: single dose 20 μM, 72 h; no activity = less than 20%
# Experimental: as §3
# T. brucei Lister 427 bloodstream forms were grown in a humidified incubator at 37 °C, 5% CO2 in complete HMI-9 medium 1 supplemented with 10% heat-inactivated Fetal Bovine Serum (FBS) and 100 UI/mL penicillin/streptomycin. Parasites maintenance was performed in T25 ventilated flasks by subpassage at a concentration of 1 × 10^4/mL every 2 days on T25 ventilated flasks.
# The efficacy of compounds against T. brucei bloodstream forms was evaluated using a modified resazurin-based assay previously described in the literature. Parasites were added to 100 µL of serial dilutions of compounds in supplemented complete medium at a cell density of 5 × 10^3/mL for. As a quality control, a dose–response curve for the antitrypanosomal pentamidine was included in all the assays. The final volume of the assay is 200 µL/well. Each condition was carried out in duplicate. Following 72 h incubation at the specific conditions for T. brucei, 20 µL of a 0.5 mM resazurin solution was added and plates were incubated for a further 4 h under the same conditions. Fluorescence was measured at 544 nm and 590 nm excitation and emission wavelength, respectively, using a Synergy 2 Multi-Mode Reader (Biotek, Winooski, VT, USA). Results were shown as % of parasite growth inhibition compared to control (untreated parasites) and represent the average of at least three independent experiments. The effect was evaluated by the determination of the IC50 value (concentration required to inhibit growth in 50%) and calculated by non-linear regression curves using GraphPad Prism version 8.1.1 for Windows (GraphPad Software, San Diego CA, USA).
Structure (SMILES),GI50 [1] [µM],GI50 at 72 h [2] [µM],GI50 [3] [µM],GI50 [4] [µM],L. infantum % of Activity ± ST.DEV (Single Dose 20 μM) [5],CC50 at 72 h [6] [µM],GI50 [7] [µM],GI50 [8] [µM],T. brucei % of Activity ± ST.DEV (Single Dose 20 μM) [9],"IC50 ([5]; Leishmania infantum, dose-response) [µM]"
"COC(=O)c1sc2nccnc2c1C#Cc1ccc(C)cc1 [Compound 2e, Methyl 7-(p-tolylethynyl)thieno[2,3-b]pyrazine-6-carboxylate]",102 ± 8.13,> 125,89.2 ± 5.33,95.8 ± 8.08,no activity *,> 100,76.9 ± 6.55,93 ± 7.23,,
"COc1ccc(-c2oc(=O)c3sc4nc5ccccc5cc4c3c2-c2ccc(OC)cc2)cc1 [Compound 7d, 3,4-Bis(4-methoxyphenyl)-1H-pyrano[4′,3′:4,5]thieno[2,3-b]quinolin-1-one]",97.8 ± 6.14,> 125,88.6 ± 5.08,91.2 ± 8.71,no activity *,< 12.5,75.2 ± 6.72,90 ± 3.29,no activity *,
"O=c1oc(-c2ccccc2)c(-c2ccccc2)c2c1sc1nc3ccccc3cc12 [Compound 7a, 3,4-Diphenyl-1H-pyrano[4′,3′:4,5]thieno[2,3-b]quinolin-1-one]",93.9 ± 3.18,> 125,93.5 ± 5.37,97.9 ± 6.31,no activity *,< 12.5,78.9 ± 6.06,75 ± 4.49,,
"CCCCc1oc(=O)c2sc3nc4ccccc4cc3c2c1CCCC [Compound 7b, 3,4-Dibutyl-1H-pyrano[4′,3′:4,5]thieno[2,3-b]quinolin-1-one]",109 ± 9.16,> 125,99.8 ± 4.94,101 ± 7.33,,12.5 to 50,82.8 ± 8.02,91.1 ± 2.46,no activity *,19
"COC(=O)c1sc2nccnc2c1C#Cc1ccc(F)cc1 [Compound 2c, Methyl 7-[(4-fluorophenyl)ethynyl]-thieno[2,3-b]pyrazine-6-carboxylate]",67.2 ± 3.05,> 125,70.7 ± 4.72,51.8 ± 1.07,no activity *,> 100,48.3 ± 1.66,52.1 ± 0.89,no activity *,
"COC(=O)c1sc2nccnc2c1C#Cc1ccc(OC)cc1 [Compound 2d, Methyl 7-[(4-methoxyphenyl)ethynyl]thieno[2,3-b]pyrazine-6-carboxylate]",82.5 ± 5.35,> 125,59.3 ± 1.97,67.9 ± 2.47,no activity *,> 100,62.3 ± 2.98,79.5 ± 3.58,no activity *,
"O=c1oc(-c2ccc(C(F)(F)F)cc2)c(-c2ccc(C(F)(F)F)cc2)c2c1sc1nc3ccccc3cc12 [Compound 7e, 3,4-Bis(4-(trifluoromethyl)phenyl)-1H-pyrano[4’,3’:4,5]thieno[2,3-b]quinolin-1-one]",,,,,no activity *,25 to 50,,,no activity *,

# Reference: publication PMC12073635, “Synthesis of Tricyclic and Tetracyclic Lactone Derivatives of Thieno[2,3-b]pyrazine or Thieno[2,3-b]quinoline: Preliminary Antitumor and Antiparasitic Activity Evaluation” (Molecules, 2025)
